# Read-outs that look alike come from different tables or passages of the source.
# Columns and labels:
# [1] = target: T1, M1 muscarinic receptor (Homo sapiens, UniProt P11229); test: Functional mobilization of intracellular calcium (FLIPR) in M1-CHO cells; type: cell-based; conditions: for Emax: read-out: M1 Efficacy
# T1 construct: expressed in transfected cells; host or cells: CHO (M1-CHO)
# T1 sequence (P11229 1-460): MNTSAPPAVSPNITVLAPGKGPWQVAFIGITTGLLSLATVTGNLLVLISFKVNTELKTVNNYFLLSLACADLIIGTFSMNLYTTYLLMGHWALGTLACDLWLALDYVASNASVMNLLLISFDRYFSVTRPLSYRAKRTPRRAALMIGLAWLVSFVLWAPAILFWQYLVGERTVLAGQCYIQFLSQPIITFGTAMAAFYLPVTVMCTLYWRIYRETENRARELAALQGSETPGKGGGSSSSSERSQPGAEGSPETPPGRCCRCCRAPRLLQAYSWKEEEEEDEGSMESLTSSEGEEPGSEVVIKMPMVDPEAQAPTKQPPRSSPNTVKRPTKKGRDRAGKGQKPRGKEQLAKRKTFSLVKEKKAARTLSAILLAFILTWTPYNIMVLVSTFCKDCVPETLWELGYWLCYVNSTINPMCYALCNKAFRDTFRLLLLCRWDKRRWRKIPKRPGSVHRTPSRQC
# Summary of the method: (§1)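 Intracellular calcium rise is measured by FLIPR fluorescence over 60 sec in CHO cells carrying human M1 or M4 receptors. Compounds are tested alone as agonists, or pre-incubated 15 min (or co-applied) ahead of carbachol at its EC80 to detect inhibition.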
# [2] = target: T2, M4 muscarinic receptor (Homo sapiens, UniProt P08173); test: Functional mobilization of intracellular calcium (FLIPR) in M4-CHO cells; type: cell-based; conditions: for Emax: read-out: M4 Efficacy
# T2 construct: expressed in transfected cells; host or cells: CHO (M4-CHO)
# T2 sequence (P08173 1-479): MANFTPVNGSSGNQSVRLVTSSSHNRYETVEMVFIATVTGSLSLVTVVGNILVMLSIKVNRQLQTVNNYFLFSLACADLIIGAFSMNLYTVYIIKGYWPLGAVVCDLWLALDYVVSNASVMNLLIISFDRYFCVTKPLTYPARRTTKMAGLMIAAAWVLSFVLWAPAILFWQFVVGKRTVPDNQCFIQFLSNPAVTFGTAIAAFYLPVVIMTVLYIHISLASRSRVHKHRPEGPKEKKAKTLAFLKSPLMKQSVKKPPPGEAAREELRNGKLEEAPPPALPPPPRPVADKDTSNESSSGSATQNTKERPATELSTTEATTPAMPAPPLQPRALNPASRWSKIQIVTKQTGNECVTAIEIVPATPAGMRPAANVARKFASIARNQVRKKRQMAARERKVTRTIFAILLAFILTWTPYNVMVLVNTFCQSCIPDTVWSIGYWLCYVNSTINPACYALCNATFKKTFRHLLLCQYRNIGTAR
# Summary of the method: as §1
# [3] = M1 receptor, calcium mobilization
# [4] = M4 receptor, calcium mobilization
# [5] = M1-CHO cells, calcium mobilization (FLIPR)
# [6] = M4-CHO cells, calcium mobilization (FLIPR)
structure (smiles),measurement,setting,value
CCOC(=O)N(C)[C@H]1CC2(CCN(C[C@H]3C[C@H]4CC[C@H]3C4)CC2)c2ccccc21 [compound 347],M1 Activity,[1]; [3],xxx (activity was measured to be less than 0.1 μM)
same,Emax,[1]; [3],65 to 85%
same,M4 Activity,[2]; [4],xx (activity was measured to be between 0.1 μM and 1.0 μM)
same,Emax,[2]; [4],> 85%
Clc1ccc2c(c1)C1(CCN(C3CCC4CCC3C4)CC1)CN2 (stereo not shown) [compound 348],M1 Activity,[1]; [3],xxx (activity was measured to be less than 0.1 μM)
same,Emax,[1]; [3],> 85%
same,M4 Activity,[2]; [4],xx (activity was measured to be between 0.1 μM and 1.0 μM)
same,Emax,[2]; [4],> 85%
Cc1ccc2c(c1)C1(CCN(C3CC4CCC3C4)CC1)CN2 (stereo not shown) [compound 350],M1 Activity,[1]; [3],xxx (activity was measured to be less than 0.1 μM)
same,Emax,[1]; [3],> 85%
same,M4 Activity,[2]; [4],xxx (activity was measured to be less than 0.1 μM)
same,Emax,[2]; [4],> 85%
CCOC(=O)N1C2CCC1CC(N1CCC3(CC1)CNc1ccc(Cl)cc13)C2 (stereo not shown) [compound 351],M1 Activity,[1]; [3],xxx (activity was measured to be less than 0.1 μM)
same,Emax,[1]; [3],65 to 85%
same,M4 Activity,[2]; [4],xx (activity was measured to be between 0.1 μM and 1.0 μM)
same,Emax,[2]; [4],> 85%
CCOC(=O)N1CCC(N2CCC3(CC2)CNc2ccccc23)CC1 [compound 352],M1 Activity,[1]; [3],xxx (activity was measured to be less than 0.1 μM)
same,Emax,[1]; [3],> 85%
same,M4 Activity,[2]; [4],x (activity was measured to be greater than 1.0 μM)
same,Emax,[2]; [4],> 85%
CC#CCOC(=O)N1CCC(N2CCC3(CC2)CN(C(=O)N(C)C)c2ccc(F)cc23)CC1 [compound 353],M1 Activity,[1]; [3],xxx (activity was measured to be less than 0.1 μM)
same,Emax,[1]; [3],> 85%
same,M4 Activity,[2]; [4],x (activity was measured to be greater than 1.0 μM)
same,Emax,[2]; [4],65 to 85%
Cc1ccc2c(c1)C1(CCN(C3CC4CCC3C4)CC1)CN2S(=O)(=O)c1ccccc1 (stereo not shown) [compound 354],M1 Activity,[1]; [3],x (activity was measured to be greater than 1.0 μM)
same,Emax,[1]; [3],65 to 85%
same,M4 Activity,[2]; [4],x (activity was measured to be greater than 1.0 μM)
same,Emax,[2]; [4],65 to 85%
O=C(O[C@H]1CCOC1)N1C2CCC1CC(N1CCC3(CCc4ccccc43)CC1)C2 (stereo partly shown) [compound 355],M1 Activity,[1]; [3],xx (activity was measured to be between 0.1 μM and 1.0 μM)
same,Emax,[1]; [3],65 to 85%
same,M4 Activity,[2]; [4],xx (activity was measured to be between 0.1 μM and 1.0 μM)
same,Emax,[2]; [4],65 to 85%
CN([C@H]1CC2(CCN(C[C@H]3C[C@H]4CC[C@H]3C4)CC2)c2ccccc21)S(C)(=O)=O [compound 357],M1 Activity,[1]; [3],xx (activity was measured to be between 0.1 μM and 1.0 μM)
same,Emax,[1]; [3],< 65%
same,M4 Activity,[2]; [4],x (activity was measured to be greater than 1.0 μM)
same,Emax,[2]; [4],< 65%
CC(=O)N[C@H]1CC2(CCN(C3CCC[C@@H](C)C3)CC2)c2ccccc21 (stereo partly shown) [compound 358],M1 Activity,[1]; [3],xxx (activity was measured to be less than 0.1 μM)
same,Emax,[1]; [3],65 to 85%
same,M4 Activity,[2]; [4],xx (activity was measured to be between 0.1 μM and 1.0 μM)
same,Emax,[2]; [4],65 to 85%
CCOC(=O)N1C2CCC1CC(N1CCC3(CC1)C[C@H](NC(C)=O)c1ccccc13)C2 (stereo partly shown) [compound 359],M1 Activity,[1]; [3],xx (activity was measured to be between 0.1 μM and 1.0 μM)
same,Emax,[1]; [3],< 65%
same,M4 Activity,[2]; [4],xx (activity was measured to be between 0.1 μM and 1.0 μM)
same,Emax,[2]; [4],< 65%
CCCOC(=O)N1C2CCC1CC(N1CCC3(CC1)CN(C(=O)N(C)C)c1ccc(F)cc13)C2 (stereo not shown) [compound 360],M1 Activity,[1]; [3],xx (activity was measured to be between 0.1 μM and 1.0 μM)
same,Emax,[1]; [3],65 to 85%
same,M4 Activity,[2]; [4],x (activity was measured to be greater than 1.0 μM)
same,Emax,[2]; [4],< 65%
CC(C)OC(=O)N1C2CCC1CC(N1CCC3(CC1)CN(C(=O)O[C@@H]1CCOC1)c1ccc(F)cc13)C2 (stereo partly shown) [compound 361],M1 Activity,[1]; [3],xx (activity was measured to be between 0.1 μM and 1.0 μM)
same,Emax,[1]; [3],< 65%
same,M4 Activity,[2]; [4],x (activity was measured to be greater than 1.0 μM)
same,Emax,[2]; [4],< 65%
CCOC(=O)N1C2CCC1CC(N1CCC3(CC1)CN(C(=O)N(C)C)c1ccc(F)cc13)C2 (stereo not shown) [compound 362],M1 Activity,[1]; [3],xx (activity was measured to be between 0.1 μM and 1.0 μM)
same,Emax,[1]; [3],65 to 85%
same,M4 Activity,[2]; [4],x (activity was measured to be greater than 1.0 μM)
same,Emax,[2]; [4],< 65%
O=C(OCC1CCCO1)N1C2CCC1CC(N1CCC3(CC1)COc1ccc(F)cc13)C2 (stereo not shown) [compound 363],M1 Activity,[1]; [3],xx (activity was measured to be between 0.1 μM and 1.0 μM)
same,Emax,[1]; [3],< 65%
same,M4 Activity,[2]; [4],x (activity was measured to be greater than 1.0 μM)
same,Emax,[2]; [4],< 65%
C#CCOC(=O)N1CCC(CN2CCC3(CC2)C[C@H](NC(C)=O)c2ccccc23)CC1 [compound 364],M1 Activity,[1]; [3],xxx (activity was measured to be less than 0.1 μM)
same,Emax,[1]; [3],> 85%
same,M4 Activity,[2]; [4],x (activity was measured to be greater than 1.0 μM)
same,Emax,[2]; [4],< 65%
CCOC(=O)N1C2CCC1CC(N1CCC3(CCc4ccccc43)CC1)C2 (stereo not shown) [compound 365],M1 Activity,[1]; [3],xxx (activity was measured to be less than 0.1 μM)
same,Emax,[1]; [3],65 to 85%
same,M4 Activity,[2]; [4],x (activity was measured to be greater than 1.0 μM)
same,Emax,[2]; [4],< 65%
CC(=O)N1CC2(CCN(CC3CC4CCC3CC4)CC2)c2cc(F)ccc21 (stereo not shown) [compound 366],M1 Activity,[1]; [3],xx (activity was measured to be between 0.1 μM and 1.0 μM)
same,Emax,[1]; [3],< 65%
same,M4 Activity,[2]; [4],x (activity was measured to be greater than 1.0 μM)
same,Emax,[2]; [4],< 65%
CCC1CCC(N2CCC3(CC2)C[C@H](NC(C)=O)c2ccccc23)CC1 (stereo partly shown) [compound 367],M1 Activity,[1]; [3],x (activity was measured to be greater than 1.0 μM)
same,Emax,[1]; [3],< 65%
same,M4 Activity,[2]; [4],x (activity was measured to be greater than 1.0 μM)
same,Emax,[2]; [4],< 65%
CCOC(=O)N1C2CCC1CC(CN1CCC3(CC1)CNc1ccc(F)cc13)C2 (stereo not shown) [compound 368],M1 Activity,[1]; [3],xxx (activity was measured to be less than 0.1 μM)
same,Emax,[1]; [3],< 65%
same,M4 Activity,[2]; [4],xx (activity was measured to be between 0.1 μM and 1.0 μM)
same,Emax,[2]; [4],< 65%
Clc1ccc2c(c1)C1(CCO2)CCN([C@@H]2C[C@@H]3CC[C@H]2C3)CC1 [compound 369],M1 Activity,[1]; [3],xxx (activity was measured to be less than 0.1 μM)
same,Emax,[1]; [3],> 85%
same,M4 Activity,[2]; [4],xx (activity was measured to be between 0.1 μM and 1.0 μM)
same,Emax,[2]; [4],> 85%
CCOC(=O)N1CCC(N2CCC3(CC2)CN(C(=O)OCCF)c2ccc(F)cc23)CC1 [compound 370],M1 Activity,[1]; [3],xxx (activity was measured to be less than 0.1 μM)
same,Emax,[1]; [3],65 to 85%
same,M4 Activity,[2]; [4],xx (activity was measured to be between 0.1 μM and 1.0 μM)
same,Emax,[2]; [4],> 85%
CCOC(=O)N1C2CCC1CC(N1CCC3(CC1)CN(C(C)=O)c1ccc(F)cc13)C2 (stereo not shown) [compound 371],M1 Activity,[1]; [3],xxx (activity was measured to be less than 0.1 μM)
same,Emax,[1]; [3],65 to 85%
same,M4 Activity,[2]; [4],x (activity was measured to be greater than 1.0 μM)
same,Emax,[2]; [4],> 85%
Cc1ccc2c(c1)C1(CCN(CC3CC4CCC3O4)CC1)CN2 (stereo not shown) [compound 372],M1 Activity,[1]; [3],xxx (activity was measured to be less than 0.1 μM)
same,Emax,[1]; [3],65 to 85%
same,M4 Activity,[2]; [4],xx (activity was measured to be between 0.1 μM and 1.0 μM)
same,Emax,[2]; [4],> 85%
CCOC(=O)N1CCC(N2CCC3(CC2)CN(C(C)=O)c2ccc(-c4cccc(C#N)c4)cc23)CC1 [compound 373],M1 Activity,[1]; [3],xxx (activity was measured to be less than 0.1 μM)
same,Emax,[1]; [3],65 to 85%
same,M4 Activity,[2]; [4],xx (activity was measured to be between 0.1 μM and 1.0 μM)
same,Emax,[2]; [4],> 85%
COC(=O)N1CCC(N2CCC3(CC2)CN(C(C)=O)c2ccc(F)cc23)CC1 [compound 374],M1 Activity,[1]; [3],xx (activity was measured to be between 0.1 μM and 1.0 μM)
same,Emax,[1]; [3],65 to 85%
same,M4 Activity,[2]; [4],x (activity was measured to be greater than 1.0 μM)
same,Emax,[2]; [4],65 to 85%
c1ccc2c(c1)NCC21CCN(C2CCCCC2)CC1 [compound 375],EC50,[1]; [5],< 100 nM
same,Emax,[1]; [5],> 85%
same,EC50,[2]; [6],< 100 nM
same,Emax,[2]; [6],65 to 85%
Fc1ccc2c(c1)C1(CCN(C[C@H]3C[C@H]4C=C[C@H]3C4)CC1)CO2 [compound 376],EC50,[1]; [5],< 100 nM
same,Emax,[1]; [5],65 to 85%
same,EC50,[2]; [6],> 1000 nM
same,Emax,[2]; [6],65 to 85%
